Holding throughout (test): relative viability (nuclei count vs DMSO), 5 days (fraction); higher = more cells survive
Compound in experiment [1]: O=C(O)c1ccc2c(c1)nc(Nc1cccc(Cl)c1)c1ccncc12 [Silmitasertib] + CC1(C)CCC(c2ccc(Cl)cc2)=C(CN2CCN(c3ccc(C(=O)NS(=O)(=O)c4ccc(N[C@H](CCN5CCOCC5)CSc5ccccc5)c(S(=O)(=O)C(F)(F)F)c4)cc3)CC2)C1 [Navitoclax] (partner 0.5 µM)
An outline of the steps: (§1)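 Relative viability divides the nuclei count in treated wells by that in vehicle wells. Lung cancer cell lines were seeded in 1536-well plates, dosed by pin tool the next day, and fixed and stained after 5 days in one step with final 0.05% Triton X-100, 1% formaldehyde and 1 ug/ml Hoechst. Dosing was a single drug or a fixed anchor-drug dose plus five library-drug doses (not always all listed) in √10 steps, and values are medians of duplicate plates imaged at 4×.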

Compound in experiment [2]: O=C(O)c1ccc2c(c1)nc(Nc1cccc(Cl)c1)c1ccncc12 [Silmitasertib] + CS(=O)(=O)CCNCc1ccc(-c2ccc3ncnc(Nc4ccc(OCc5cccc(F)c5)c(Cl)c4)c3c2)o1 [Lapatinib] (partner 2 µM)
The essentials: as §1

Compound in experiment [3]: O=C(O)c1ccc2c(c1)nc(Nc1cccc(Cl)c1)c1ccncc12 [Silmitasertib] + CC(=O)Nc1cccc(-n2c(=O)n(C3CC3)c(=O)c3c(Nc4ccc(I)cc4F)n(C)c(=O)c(C)c32)c1 [Trametinib] (partner 0.02 µM)
The essentials:
as §1

Compound in experiment [4]: O=C(O)c1ccc2c(c1)nc(Nc1cccc(Cl)c1)c1ccncc12 [Silmitasertib] + COc1cc2c(Oc3ccc(NC(=O)C4(C(=O)Nc5ccc(F)cc5)CC4)cc3F)ccnc2cc1OCCCN1CCOCC1 [Foretinib] (partner 0.25 µM)
An outline of the steps:
as §1

Compound in experiment [5]: O=C(O)c1ccc2c(c1)nc(Nc1cccc(Cl)c1)c1ccncc12 [Silmitasertib] + Cc1nc(Nc2ncc(C(=O)Nc3c(C)cccc3Cl)s2)cc(N2CCN(CCO)CC2)n1 [Dasatinib] (partner 0.075 µM)
The essentials:
as §1

The values below come from the supplement of paper PMC10307832.

For the cell line NCI-H1793, the relative viability in experiment [1] (first compound 0.04 µM) turned out to be 0.46; in experiment [1] (first compound 0.4 µM) it was 0.315; in experiment [1] (first compound 1.265 µM) it was 0.395; in experiment [1] (first compound 4 µM) it was 0.311; in experiment [2] (first compound 0.04 µM) it was 0.979; in experiment [2] (first compound 0.4 µM) it was 0.728. Moreover, the relative viability in experiment [2] (first compound 1.265 µM) was found to be 0.437; in experiment [2] (first compound 4 µM) it was 0.488; in experiment [3] (first compound 0.04 µM) it was 0.503; in experiment [3] (first compound 0.4 µM) it was 0.425; in experiment [3] (first compound 1.265 µM), 0.371; in experiment [3] (first compound 4 µM) it was 0.488. Moreover, the relative viability in experiment [4] (first compound 0.04 µM) worked out at 0.757; in experiment [4] (first compound 0.4 µM) it was 0.62; in experiment [4] (first compound 1.265 µM) it was 0.427; in experiment [4] (first compound 4 µM), 0.607; in experiment [5] (first compound 0.04 µM), 0.382; in experiment [5] (first compound 0.4 µM), 0.324. Besides, the relative viability in experiment [5] (first compound 1.265 µM) was 0.357; in experiment [5] (first compound 4 µM), 0.393.

As to NCI-H1915, the relative viability in experiment [1] (first compound 0.04 µM) is 0.839; in experiment [1] (first compound 1.265 µM) it was 0.888; in experiment [1] (first compound 4 µM), 0.64; in experiment [2] (first compound 0.04 µM), 0.994; in experiment [2] (first compound 1.265 µM), 1.02; in experiment [2] (first compound 4 µM), 0.397. The relative viability in experiment [3] (first compound 0.04 µM) is 0.334; in experiment [3] (first compound 1.265 µM), 0.304; in experiment [3] (first compound 4 µM), 0.254; in experiment [4] (first compound 0.04 µM), 1.13; in experiment [4] (first compound 1.265 µM) it was 1.05; in experiment [4] (first compound 4 µM) it was 0.991. For the same cell line, the relative viability in experiment [5] (first compound 0.04 µM) came out at 0.32; in experiment [5] (first compound 1.265 µM), 0.332; in experiment [5] (first compound 4 µM), 0.192.

Turning to NCI-H1944, the relative viability in experiment [1] (first compound 0.04 µM) turned out to be 0.976; in experiment [1] (first compound 0.4 µM) it was 0.732; in experiment [1] (first compound 1.265 µM), 1.06; in experiment [1] (first compound 4 µM), 1.27; in experiment [2] (first compound 0.04 µM), 0.826; in experiment [2] (first compound 0.4 µM) it was 0.807. Further, the relative viability in experiment [2] (first compound 1.265 µM) was 0.822; in experiment [2] (first compound 4 µM), 0.816; in experiment [3] (first compound 0.04 µM) it was 0.419; in experiment [3] (first compound 0.4 µM), 0.403; in experiment [3] (first compound 1.265 µM), 0.481; in experiment [3] (first compound 4 µM) it was 0.429. Moreover, the relative viability in experiment [4] (first compound 0.04 µM) is 0.924; in experiment [4] (first compound 0.4 µM) it was 0.768; in experiment [4] (first compound 1.265 µM), 0.92; in experiment [4] (first compound 4 µM), 1; in experiment [5] (first compound 0.04 µM), 0.229; in experiment [5] (first compound 0.4 µM), 0.235. For the same cell line, the results for the relative viability in experiment [5] (first compound 1.265 µM) and in experiment [5] (first compound 4 µM) were 0.227 and 0.224, respectively.

For NCI-H1975, the relative viability in experiment [1] (first compound 0.04 µM) stood at 1.04; in experiment [1] (first compound 0.4 µM) it was 0.699; in experiment [1] (first compound 1.265 µM) it was 1.06; in experiment [1] (first compound 4 µM), 0.716; in experiment [2] (first compound 0.04 µM), 0.901; in experiment [2] (first compound 0.4 µM), 0.731. Also, the relative viability in experiment [2] (first compound 1.265 µM) worked out at 0.719; in experiment [2] (first compound 4 µM), 0.739; in experiment [3] (first compound 0.04 µM) it was 0.613; in experiment [3] (first compound 1.265 µM) it was 0.297; in experiment [3] (first compound 4 µM), 0.315; in experiment [4] (first compound 0.04 µM), 0.883. The relative viability in experiment [4] (first compound 1.265 µM) was 0.802; in experiment [4] (first compound 4 µM), 0.83; in experiment [5] (first compound 0.04 µM) it was 0.401; in experiment [5] (first compound 1.265 µM) it was 0.324; in experiment [5] (first compound 4 µM), 0.432.

With NCI-H1993, the relative viability in experiment [1] (first compound 0.04 µM) is 1.07; in experiment [1] (first compound 0.4 µM), 0.933; in experiment [1] (first compound 1.265 µM), 0.631; in experiment [1] (first compound 4 µM), 0.749; in experiment [2] (first compound 0.04 µM), 0.815; in experiment [2] (first compound 0.4 µM), 0.753. For the same cell line, the relative viability in experiment [2] (first compound 1.265 µM) was determined as 0.887; in experiment [2] (first compound 4 µM), 0.803; in experiment [3] (first compound 0.04 µM) it was 0.584; in experiment [3] (first compound 0.4 µM) it was 0.609; in experiment [3] (first compound 1.265 µM) it was 0.578; in experiment [3] (first compound 4 µM), 0.586. Moreover, the relative viability in experiment [4] (first compound 0.04 µM) worked out at 0.817; in experiment [4] (first compound 0.4 µM), 0.652; in experiment [4] (first compound 1.265 µM), 0.651; in experiment [4] (first compound 4 µM) it was 0.65; in experiment [5] (first compound 0.04 µM), 0.652; in experiment [5] (first compound 0.4 µM), 0.502. In addition, the relative viability in experiment [5] (first compound 1.265 µM) amounted to 0.52; in experiment [5] (first compound 4 µM) it was 0.586.

As for NCI-H2009, the relative viability in experiment [1] (first compound 0.04 µM) came out at 1.15; in experiment [1] (first compound 0.4 µM), 1.09; in experiment [1] (first compound 1.265 µM), 1.19; in experiment [1] (first compound 4 µM), 0.788; in experiment [2] (first compound 0.04 µM), 1.04; in experiment [2] (first compound 0.4 µM), 0.636. Moreover, the relative viability in experiment [2] (first compound 1.265 µM) was found to be 0.85; in experiment [2] (first compound 4 µM), 0.341; in experiment [3] (first compound 0.04 µM) it was 0.342; in experiment [3] (first compound 0.4 µM) it was 0.271; in experiment [3] (first compound 1.265 µM), 0.254; in experiment [3] (first compound 4 µM), 0.239. In addition, the relative viability in experiment [4] (first compound 0.04 µM) came to 1.34; in experiment [4] (first compound 0.4 µM), 1.16; in experiment [4] (first compound 1.265 µM), 1.13; in experiment [4] (first compound 4 µM), 0.897; in experiment [5] (first compound 0.04 µM), 0.35; in experiment [5] (first compound 0.4 µM) it was 0.297. The relative viability stood at 0.246 in experiment [5] (first compound 1.265 µM) and 0.218 in experiment [5] (first compound 4 µM).

On to NCI-H2023, for which the relative viability is 0.999 in experiment [1] (first compound 0.04 µM); 1.01 in experiment [1] (first compound 0.4 µM); 0.96 in experiment [1] (first compound 1.265 µM); 0.73 in experiment [1] (first compound 4 µM); 1.05 in experiment [2] (first compound 0.04 µM); 0.373 in experiment [2] (first compound 0.4 µM). Moreover, the relative viability in experiment [2] (first compound 1.265 µM) is 0.767; in experiment [2] (first compound 4 µM), 0.159; in experiment [3] (first compound 0.04 µM), 0.728; in experiment [3] (first compound 0.4 µM), 0.569; in experiment [3] (first compound 1.265 µM) it was 0.373; in experiment [3] (first compound 4 µM) it was 0.535. Also, the relative viability in experiment [4] (first compound 0.04 µM) was 0.886; in experiment [4] (first compound 0.4 µM), 0.75; in experiment [4] (first compound 1.265 µM), 0.551; in experiment [4] (first compound 4 µM) it was 0.707; in experiment [5] (first compound 0.04 µM) it was 0.547; in experiment [5] (first compound 0.4 µM), 0.443. The relative viability was found to be 0.548 in experiment [5] (first compound 1.265 µM) and 0.416 in experiment [5] (first compound 4 µM).
